Experimental findings from patent US4341786A, “Pharmaceutical compositions and method of producing central alpha1 agonist activity utilizing octahydrobenzo[f]quinoline compounds” (SmithKline Corporation, priority 1981, dated 1982) are described below.

As a reminder, the EC50 is the concentration needed to bring the measured effect to its halfway point. High values mean a need for much substance, low ones an effect from little substance.

Structures can show the parent of a compound that is named as a salt.

This experiment has as its target postjunctional alpha1 receptors. Put plainly: postjunctional alpha1 agonist activity (EC50), isolated segment of rabbit ear artery. To be noted: smooth muscle tension, dose producing 50% of the maximum response (norepinephrine). The source says: The assay procedure is described by Steinsland et al. J. Pharm. Exp. Ther. 184:346-356, 1973. Briefly, this test comprises sacrificing a white rabbit and removing the central ear artery. The artery is cannulated at both ends and placed in a perfusion chamber. The artery is simultaneously perfused intraluminally and superfused extraluminally with Krebs solution. The compound to be tested can be administered by means of either the intraluminal or extraluminal flow. The sympathetic nerve is excited at four minute intervals by field stimulation. The selective alpha1 agonist activity is measured as the ability to increase perfusion pressure (mm Hg.) without inhibiting response to sympathetic nerve stimulation.
A quantitation of postjunctional alpha1 agonist activity (EC50) is determined for compounds showing activity in the above test. This is accomplished by employing an isolated segment of rabbit ear artery. The segment is mounted in a chamber superfused with oxygenated Krebs solution. The segment is suspended between two tungsten wires, one attached to the chamber, the other to a force-displacement transducer so that smooth muscle tension can be measured directly. Before administration of the test drug, norepinephrine is administered in increasing concentration (10^-8 M to 3×10^-6 M) to determine maximum response of the artery. […]

With `COc1ccc(OC)c2c1CCC1NCCCC21` (stereo not shown) [7,10-dimethoxy-1,2,3,4,4a,5,6,10-b-octahydro-benzo[f]quinoline hydrochloride], a half-maximal effect (EC50) was put at 0.19 µM.
